In US6525001B1, “Substituted pyrimidine and pyridine herbicides” (Mid-American Commercialization Corporation, priority 1997, dated 2003):

Columns and labels:
Format in all cases: in vivo
[1] = test system: ladysthumb smartweed (Polygonum persicaria); assay: Test C; design: key: 0 was no effect; 100 was complete control; conditions: PREEMERGENCE
[2] = test system: ivyleaf morningglory (Ipomoea hederacea); assay: Test C; design: key: 0 was no effect; 100 was complete control; conditions: PREEMERGENCE
[3] = test system: purple nutsedge (Cyperus rotundus); assay: Test C; design: key: 0 was no effect; 100 was complete control; conditions: PREEMERGENCE
[4] = test system: eastern black nightshade (Solanum ptycanthum); assay: Test C; conditions: PREEMERGENCE
[5] = test system: quackgrass (Agropyron repens); assay: Test E pre-/postemergence/post directed; design: key: 0 is no effect; 100 is complete control; conditions: PREEMERGENCE
Method in brief: (§1)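 Greenhouse pots; compound in non-phytotoxic solvent with surfactant, sprayed preemergence within one day of planting, postemergence at two to four leaf stage (three to twenty cm), or post directed to plant base and soil. Visual injury rated 13 to 21 days after application, 0 (none) to 100 (complete control).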

[6] = test system: sandbur (Cenchrus echinatus); assay: Test E pre-/postemergence/post directed; design: key: 0 is no effect; 100 is complete control; conditions: PREEMERGENCE
Method in brief: as §1

[7] = test system: common chickweed (Stellaria media); assay: Test E pre-/postemergence/post directed; design: key: 0 is no effect; 100 is complete control; conditions: PREEMERGENCE
Method in brief: as §1

[8] = test system: leafy spurge (Euphorbia esula); assay: Test E pre-/postemergence/post directed; design: key: 0 is no effect; 100 is complete control; conditions: PREEMERGENCE
Method in brief: as §1

B. signalgrass = assay: Test E pre-/postemergence/post directed; design: key: 0 is no effect; 100 is complete control; conditions: PREEMERGENCE
Method in brief: as §1

[9] = test system: johnson grass (Sorghum halepense); assay: Test E pre-/postemergence/post directed; design: key: 0 is no effect; 100 is complete control
Method in brief: as §1

[10] = test system: arrowleaf sida (Sida rhombifolia); assay: Test E pre-/postemergence/post directed; design: key: 0 is no effect; 100 is complete control; conditions: PREEMERGENCE
Method in brief: as §1

[11] = test system: green foxtail (Setaria viridis); assay: Test E pre-/postemergence/post directed; design: key: 0 is no effect; 100 is complete control; conditions: PREEMERGENCE
Method in brief: as §1

[12] = test system: alexandergrass (Brachiaria plantaginea); assay: Test E pre-/postemergence/post directed; design: key: 0 is no effect; 100 is complete control; conditions: PREEMERGENCE
Method in brief: as §1

[13] = test system: annual bluegrass (Poa annua); assay: Test E pre-/postemergence/post directed; design: key: 0 is no effect; 100 is complete control; conditions: PREEMERGENCE
Method in brief: as §1

[14] = test system: Spanishneedles (Bidens bipinnata); assay: Test E pre-/postemergence/post directed; design: key: 0 is no effect; 100 is complete control; conditions: PREEMERGENCE
Method in brief: as §1

[15] = test system: pitted morningglory (Ipomoea lacunosa); assay: Test E pre-/postemergence/post directed; design: key: 0 is no effect; 100 is complete control; conditions: PREEMERGENCE
Method in brief: as §1

For `Cc1cnc(-c2ccc(C(F)(F)F)cc2)nc1Cc1cccc(OC(F)(F)F)c1` [Compound 15], the “Plant response rating, Ladysthumb” value ([1]; Rate 35 g/ha) was 0, the “Plant response rating, Ladysthumb” value ([1]; Rate 70 g/ha) was 20 and the “Plant response rating, Ladysthumb” value ([1]; Rate 140 g/ha) was 90. For the same compound, the “Plant response rating, I. morningglory” value ([2]; Rate 35 g/ha) was 15, the “Plant response rating, I. morningglory” value ([2]; Rate 70 g/ha) was 20 and the “Plant response rating, I. morningglory” value ([2]; Rate 140 g/ha) was 65. The “Plant response rating, Purple nutsedge” value ([3]; Rate 35 g/ha) was 0, the “Plant response rating, Purple nutsedge” value ([3]; Rate 70 g/ha) was 0 and the “Plant response rating, Purple nutsedge” value ([3]; Rate 140 g/ha) was 0. For the same compound, the “Plant response rating, E. blacknightsh” value ([4]; Rate 35 g/ha) was 70, the “Plant response rating, E. blacknightsh” value ([4]; Rate 70 g/ha) was 95 and the “Plant response rating, E. blacknightsh” value ([4]; Rate 140 g/ha) was 95. For the same compound, the “Plant response rating, Quackgrass” value ([5]; Rate 32 g/ha) was 65, the “Plant response rating, Quackgrass” value ([5]; Rate 64 g/ha) was 65 and the “Plant response rating, Quackgrass” value ([5]; Rate 125 g/ha) was 95. For the same compound, the “Plant response rating, Quackgrass” value ([5]; Rate 250 g/ha) was 95, the “Plant response rating, Sandbur” value ([6]; Rate 250 g/ha) was 100 and the “Plant response rating, Com. chickweed” value ([7]; Rate 32 g/ha) was 65. For the same compound, the “Plant response rating, Com. chickweed” value ([7]; Rate 64 g/ha) was 85, the “Plant response rating, Com. chickweed” value ([7]; Rate 125 g/ha) was 98 and the “Plant response rating, Com. chickweed” value ([7]; Rate 250 g/ha) was 100. The “Plant response rating, Leafy spurge” value ([8]; Rate 32 g/ha) was 35, the “Plant response rating, Leafy spurge” value ([8]; Rate 64 g/ha) was 65 and the “Plant response rating, Leafy spurge” value ([8]; Rate 250 g/ha) was 98. For the same compound, the “Plant response rating, B. signalgrass” value (B. signalgrass; Rate 32 g/ha) was 35, the “Plant response rating, B. signalgrass” value (B. signalgrass; Rate 64 g/ha) was 60 and the “Plant response rating, B. signalgrass” value (B. signalgrass; Rate 125 g/ha) was 95. For the same compound, the “Plant response rating, B. signalgrass” value (B. signalgrass; Rate 250 g/ha) was 98, the “Plant response rating, Johnsongrass” value ([9]; POSTEMERGENCE, Rate 250 g/ha) was 100 and the “Plant response rating, Johnsongrass” value ([9]; PREEMERGENCE, Rate 250 g/ha) was 100. For the same compound, the “Plant response rating, Arrowleaf sida” value ([10]; Rate 32 g/ha) was 65, the “Plant response rating, Arrowleaf sida” value ([10]; Rate 64 g/ha) was 50 and the “Plant response rating, Arrowleaf sida” value ([10]; Rate 125 g/ha) was 100. For the same compound, the “Plant response rating, Arrowleaf sida” value ([10]; Rate 250 g/ha) was 100, the “Plant response rating, Green foxtail” value ([11]; Rate 32 g/ha) was 100 and the “Plant response rating, Green foxtail” value ([11]; Rate 64 g/ha) was 100. For the same compound, the “Plant response rating, Green foxtail” value ([11]; Rate 125 g/ha) was 100, the “Plant response rating, Green foxtail” value ([11]; Rate 250 g/ha) was 100 and the “Plant response rating, Alexandergrass” value ([12]; Rate 125 g/ha) was 100. The “Plant response rating, Alexandergrass” value ([12]; Rate 250 g/ha) was 100, the “Plant response rating, A. bluegrass” value ([13]; Rate 32 g/ha) was 100 and the “Plant response rating, A. bluegrass” value ([13]; Rate 64 g/ha) was 100. For the same compound, the “Plant response rating, A. bluegrass” value ([13]; Rate 125 g/ha) was 100, the “Plant response rating, A. bluegrass” value ([13]; Rate 250 g/ha) was 100 and the “Plant response rating, Spanishneedles” value ([14]; Rate 250 g/ha) was 100.

With `Cc1cnc(-n2ccc(C(F)(F)F)n2)nc1Cc1cccc(C(F)(F)F)c1` [Example 2, 5-methyl-4-[[3-(trifluoromethyl)phenyl]methyl]-2-[3-(trifluoromethyl)-1H-pyrazol-1-yl]pyrimidine] the “Plant response rating, Ladysthumb” value ([1]; Rate 70 g/ha) was 30, the “Plant response rating, I. morningglory” value ([2]; Rate 35 g/ha) was 0 and the “Plant response rating, I. morningglory” value ([2]; Rate 70 g/ha) was 5. The “Plant response rating, I. morningglory” value ([2]; Rate 140 g/ha) was 5, the “Plant response rating, Purple nutsedge” value ([3]; Rate 35 g/ha) was 0 and the “Plant response rating, Purple nutsedge” value ([3]; Rate 70 g/ha) was 0. The “Plant response rating, Purple nutsedge” value ([3]; Rate 140 g/ha) was 0, the “Plant response rating, E. blacknightsh” value ([4]; Rate 35 g/ha) was 5 and the “Plant response rating, E. blacknightsh” value ([4]; Rate 70 g/ha) was 5. The “Plant response rating, E. blacknightsh” value ([4]; Rate 140 g/ha) was 90, the “Plant response rating, Quackgrass” value ([5]; Rate 32 g/ha) was 20 and the “Plant response rating, Quackgrass” value ([5]; Rate 64 g/ha) was 90. The “Plant response rating, Quackgrass” value ([5]; Rate 125 g/ha) was 100, the “Plant response rating, Quackgrass” value ([5]; Rate 250 g/ha) was 100 and the “Plant response rating, Sandbur” value ([6]; Rate 250 g/ha) was 100. For the same compound, the “Plant response rating, Sandbur” value ([6]; Rate 500 g/ha) was 100, the “Plant response rating, Com. chickweed” value ([7]; Rate 32 g/ha) was 100 and the “Plant response rating, Com. chickweed” value ([7]; Rate 64 g/ha) was 100. The “Plant response rating, Com. chickweed” value ([7]; Rate 125 g/ha) was 100, the “Plant response rating, Com. chickweed” value ([7]; Rate 250 g/ha) was 100 and the “Plant response rating, Leafy spurge” value ([8]; Rate 32 g/ha) was 60. The “Plant response rating, Leafy spurge” value ([8]; Rate 64 g/ha) was 98, the “Plant response rating, Leafy spurge” value ([8]; Rate 125 g/ha) was 100 and the “Plant response rating, Leafy spurge” value ([8]; Rate 250 g/ha) was 100. For the same compound, the “Plant response rating, B. signalgrass” value (B. signalgrass; Rate 32 g/ha) was 65, the “Plant response rating, B. signalgrass” value (B. signalgrass; Rate 64 g/ha) was 100 and the “Plant response rating, B. signalgrass” value (B. signalgrass; Rate 125 g/ha) was 100. The “Plant response rating, B. signalgrass” value (B. signalgrass; Rate 250 g/ha) was 100, the “Plant response rating, Johnsongrass” value ([9]; PREEMERGENCE, Rate 250 g/ha) was 100 and the “Plant response rating, Johnsongrass” value ([9]; PREEMERGENCE, Rate 500 g/ha) was 100. The “Plant response rating, Arrowleaf sida” value ([10]; Rate 32 g/ha) was 98, the “Plant response rating, Arrowleaf sida” value ([10]; Rate 64 g/ha) was 100 and the “Plant response rating, Arrowleaf sida” value ([10]; Rate 125 g/ha) was 100. For the same compound, the “Plant response rating, Arrowleaf sida” value ([10]; Rate 250 g/ha) was 100, the “Plant response rating, Green foxtail” value ([11]; Rate 32 g/ha) was 90 and the “Plant response rating, Green foxtail” value ([11]; Rate 64 g/ha) was 100. For the same compound, the “Plant response rating, Green foxtail” value ([11]; Rate 125 g/ha) was 100, the “Plant response rating, Green foxtail” value ([11]; Rate 250 g/ha) was 100 and the “Plant response rating, P. morninglory” value ([15]; Rate 32 g/ha) was 100. For the same compound, the “Plant response rating, P. morninglory” value ([15]; Rate 64 g/ha) was 100, the “Plant response rating, P. morninglory” value ([15]; Rate 125 g/ha) was 100 and the “Plant response rating, P. morninglory” value ([15]; Rate 250 g/ha) was 100. The “Plant response rating, P. morninglory” value ([15]; Rate 500 g/ha) was 100, the “Plant response rating, Alexandergrass” value ([12]; Rate 125 g/ha) was 100 and the “Plant response rating, Alexandergrass” value ([12]; Rate 250 g/ha) was 100. For the same compound, the “Plant response rating, Alexandergrass” value ([12]; Rate 500 g/ha) was 100, the “Plant response rating, A. bluegrass” value ([13]; Rate 32 g/ha) was 80 and the “Plant response rating, A. bluegrass” value ([13]; Rate 64 g/ha) was 100. The “Plant response rating, A. bluegrass” value ([13]; Rate 125 g/ha) was 100, the “Plant response rating, A. bluegrass” value ([13]; Rate 250 g/ha) was 100 and the “Plant response rating, Spanishneedles” value ([14]; Rate 64 g/ha) was 100. For the same compound, the “Plant response rating, Spanishneedles” value ([14]; Rate 125 g/ha) was 100, the “Plant response rating, Spanishneedles” value ([14]; Rate 250 g/ha) was 100 and the “Plant response rating, Spanishneedles” value ([14]; Rate 500 g/ha) was 100.
